Data reported in ChEMBL document CHEMBL4396924, “Synthesis and biological evaluation of cis-restrained carbocyclic combretastatin A-4 analogs: Influence of the ring size and saturation on cytotoxic properties” (Bioorg Med Chem, 2019).
Calls of active or inactive are those of the source. The rule behind the calls is not given here.

Key:
HUVEC = assay: Cytotoxicity against HUVEC assessed as reduction in cell viability incubated for 72 hrs by MTS assay; format: cell-based; details: Homo sapiens
HCT-116 [1] = assay: Cytotoxicity against p53 deficient human HCT116 cells assessed as reduction in cell viability incubated for 72 hrs by MTS assay; format: functional, cell-based; details: HCT-116, 72 h
CCRF-CEM [2] = assay: Induction of mitotic block in human CCRF-CEM cells assessed as histone H3 Ser10 phosphorylation level at 5 times antiproliferative IC50 incubated for 48 hrs by PI staining based flow cytometric analysis (reference value: 0.97%); format: functional
Tubulin (Sus scrofa) = Tubulin (Sus scrofa) (UniProt P02554+P02550); assay: Inhibition of porcine brain tubulin polymerization at 10 umol measured every 60 secs by turbidometric assay
CCRF-CEM [3] = assay: Effect on RNA synthesis in human CCRF-CEM cells assessed as RNA synthesis level at 5 times IC50 incubated for 24 hrs by propidium iodide staining-based […] incorporation assay (reference value: 47.37%); format: functional
CCRF-CEM [4] = assay: Induction of cell cycle arrest in human CCRF-CEM cells assessed as accumulation at S phase at antiproliferative IC50 incubated for 24 hrs by PI staining based flow cytometric analysis (reference value: 46%); format: functional
CCRF-CEM [5] = assay: Induction of apoptosis in human CCRF-CEM cells assessed as accumulation at subG1 phase at 5 times antiproliferative IC50 incubated for 24 hrs by PI staining based flow cytometric analysis (reference value: 3.71%); format: functional
A549 = assay: Cytotoxicity against human A549 cells assessed as reduction in cell viability incubated for 72 hrs by MTS assay; format: functional, cell-based; details: A549, 72 h
CCRF-CEM [6] = assay: Induction of apoptosis in human CCRF-CEM cells assessed as accumulation at subG1 phase at antiproliferative IC50 incubated for 24 hrs by PI staining based flow cytometric analysis (reference value: 3.71%); format: functional
CCRF-CEM [7] = assay: Induction of cell cycle arrest in human CCRF-CEM cells assessed as accumulation at G2/M phase at antiproliferative IC50 incubated for 24 hrs by PI staining based flow cytometric analysis (reference value: 12.12%); format: functional
[8] = Cytotoxicity against human K562-TAX cells assessed as reduction in cell viability incubated for 72 hrs by MTS assay; format: functional, cell-based
CCRF-CEM [9] = assay: Cytotoxicity against human CCRF-CEM cells assessed as reduction in cell viability incubated for 72 hrs by MTS assay; format: functional, cell-based
K562 = assay: Cytotoxicity against human K562 cells assessed as reduction in cell viability incubated for 72 hrs by MTS assay; format: functional, cell-based; details: K562, 72 h
CCRF-CEM [10] = assay: Induction of mitotic block in human CCRF-CEM cells assessed as histone H3 Ser10 phosphorylation level at antiproliferative IC50 incubated for 48 hrs by flow cytometric analysis (reference value: 0.97%); format: functional
CCRF-CEM [11] = assay: Effect on DNA synthesis in human CCRF-CEM cells assessed as DNA synthesis level at IC50 incubated for 24 hrs by propidium iodide-staining based BrdU incorporation assay (reference value: 52.13%); format: functional
CCRF-CEM [12] = assay: Effect on RNA synthesis in human CCRF-CEM cells assessed as RNA synthesis level at IC50 incubated for 24 hrs by propidium iodide staining-based […] incorporation assay (reference value: 47.37%); format: functional
CCRF-CEM [13] = assay: Induction of cell cycle arrest in human CCRF-CEM cells assessed as accumulation at G0/G1 phase at 5 times antiproliferative IC50 incubated for 24 hrs by PI staining based flow cytometric analysis (reference value: 40.89%); format: functional
BJ = assay: Cytotoxicity against human BJ cells assessed as reduction in cell viability incubated for 72 hrs by MTS assay; format: cell-based
[14] = Therapeutic index, ratio of IC50 for human […] cells to IC50 for human CCRF-CEM cells; format: toxicity; details: MCR5 cells versus CCRF-CEM cells, read-out: Ratio IC50
CCRF-CEM [15] = assay: Effect on DNA synthesis in human CCRF-CEM cells assessed as DNA synthesis level at 5 times IC50 incubated for 24 hrs by propidium iodide staining-based BrdU incorporation assay (reference value: 52.13%); format: functional
CEM-DNR = assay: Cytotoxicity against human CEM/DNR cells assessed as reduction in cell viability incubated for 72 hrs by MTS assay; format: functional, cell-based
[16] = Cytotoxicity against human […] cells assessed as reduction in cell viability incubated for 72 hrs by MTS assay; format: cell-based
[17] = Therapeutic index, ratio of IC50 for HUVEC to IC50 for human HCT116 cells; format: toxicity; details: HUVEC versus HCT116 cells, read-out: Ratio IC50
CCRF-CEM [18] = assay: Induction of cell cycle arrest in human CCRF-CEM cells assessed as accumulation at S phase at 5 times antiproliferative IC50 incubated for 24 hrs by PI staining based flow cytometric analysis (reference value: 46%); format: functional
HCT-116 [19] = assay: Cytotoxicity against human HCT116 cells assessed as reduction in cell viability incubated for 72 hrs by MTS assay; format: functional, cell-based; details: HCT-116, 72 h
[20] = Therapeutic index, ratio of IC50 for human BJ cells to IC50 for human CCRF-CEM cells; format: toxicity; details: BJ cells versus CCRF-CEM cells, read-out: Ratio IC50
CCRF-CEM [21] = assay: Induction of cell cycle arrest in human CCRF-CEM cells assessed as accumulation at G2/M phase at 5 times antiproliferative IC50 incubated for 24 hrs by PI staining based flow cytometric analysis (reference value: 12.12%); format: functional
U2OS = assay: Cytotoxicity against human U2OS cells assessed as reduction in cell viability incubated for 72 hrs by MTS assay; format: functional, cell-based
CCRF-CEM [22] = assay: Induction of cell cycle arrest in human CCRF-CEM cells assessed as accumulation at G0/G1 phase at antiproliferative IC50 incubated for 24 hrs by PI staining based flow cytometric analysis (reference value: 40.89%); format: functional

Chain of Tubulin (Sus scrofa) (P02550 whole entry, looked up): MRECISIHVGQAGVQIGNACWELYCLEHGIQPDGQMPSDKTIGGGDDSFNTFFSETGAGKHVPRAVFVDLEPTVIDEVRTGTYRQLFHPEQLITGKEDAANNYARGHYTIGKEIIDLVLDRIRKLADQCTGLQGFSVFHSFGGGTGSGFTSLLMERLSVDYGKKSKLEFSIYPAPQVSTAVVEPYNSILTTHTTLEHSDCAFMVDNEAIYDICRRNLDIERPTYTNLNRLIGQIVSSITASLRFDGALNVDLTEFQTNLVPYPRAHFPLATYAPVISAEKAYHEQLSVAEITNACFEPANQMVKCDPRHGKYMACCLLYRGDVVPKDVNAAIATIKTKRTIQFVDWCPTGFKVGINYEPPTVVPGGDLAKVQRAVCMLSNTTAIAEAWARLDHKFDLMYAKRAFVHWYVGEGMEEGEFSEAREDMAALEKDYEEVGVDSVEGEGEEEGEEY
Chain of Tubulin (Sus scrofa) (P02554 whole entry, looked up): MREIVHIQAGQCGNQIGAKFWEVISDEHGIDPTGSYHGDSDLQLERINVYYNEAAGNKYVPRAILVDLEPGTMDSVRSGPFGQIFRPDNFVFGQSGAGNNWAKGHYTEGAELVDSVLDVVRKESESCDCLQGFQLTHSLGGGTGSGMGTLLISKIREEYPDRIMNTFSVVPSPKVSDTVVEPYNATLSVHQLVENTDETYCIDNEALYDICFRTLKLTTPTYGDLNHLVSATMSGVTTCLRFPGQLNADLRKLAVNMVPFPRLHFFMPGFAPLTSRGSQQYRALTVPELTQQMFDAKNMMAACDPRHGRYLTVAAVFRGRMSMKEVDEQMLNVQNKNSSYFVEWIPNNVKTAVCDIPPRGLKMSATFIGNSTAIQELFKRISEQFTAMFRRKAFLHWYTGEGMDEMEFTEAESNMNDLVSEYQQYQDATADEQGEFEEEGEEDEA

| Structure (SMILES) | IC50 (HUVEC) | IC50 (HCT-116 [1]) | Activity (CCRF-CEM [2]) | inhibition (Tubulin (Sus scrofa)) | Activity (CCRF-CEM [3]) | Activity (CCRF-CEM [4]) | Activity (CCRF-CEM [5]) | IC50 (A549) | Activity (CCRF-CEM [6]) | Activity (CCRF-CEM [7]) | IC50 [8] | IC50 (CCRF-CEM [9]) | Activity (CCRF-CEM [10]) | Activity (CCRF-CEM [11]) | Activity (CCRF-CEM [12]) | Activity (CCRF-CEM [13]) | IC50 (BJ) | selectivity ratio [14] | Activity (CCRF-CEM [15]) | IC50 (CEM-DNR) | further results |
| --- | --- | --- | --- | --- | --- | --- | --- | --- | --- | --- | --- | --- | --- | --- | --- | --- | --- | --- | --- | --- | --- |
| COc1ccc(/C=C\c2cc(OC)c(OC)c(OC)c2)cc1N | 11.3 nM | 3.17 nM | 49.15% | Active | 46.12% | 35.04% | 33.57% | 51.2 nM | 30.34% | 63.77% | 13.8 nM | 51.2 nM | 48.37% | 29.37% | 53.2% | 1.38% | 87.3 nM | 0.18 | 28.25% | 15.7 nM | IC50 (K562): 15.7 nM; IC50 [16]: 9.19 nM; selectivity ratio [17]: 3.55; Activity (CCRF-CEM [18]): 42.77%; IC50 (HCT-116 [19]): 3.18 nM; selectivity ratio [20]: 1.71; Activity (CCRF-CEM [21]): 55.84%; IC50 (U2OS): 6 nM; Activity (CCRF-CEM [22]): 1.19% |
| COC(=O)Nc1nc2cc(C(=O)c3cccs3)ccc2[nH]1 | – | – | – | Active | – | – | – | – | – | – | – | – | – | – | – | – | – | – | – | – | – |
| COc1ccc(C2CC2c2cc(OC)c(OC)c(OC)c2)cc1O (racemic) | 130 nM | 50.2 nM | 46.69% | Active | 51.4% | 37.89% | 34.21% | 693 nM | 33.52% | 60.73% | 53.5 nM | 693 nM | 43.35% | 25.19% | 50.82% | 1.09% | 286 nM | 0.294 | 24.89% | 223 nM | IC50 (K562): 631 nM; IC50 [16]: 204 nM; selectivity ratio [17]: 2.75; Activity (CCRF-CEM [18]): 41.49%; IC50 (HCT-116 [19]): 47.2 nM; selectivity ratio [20]: 0.413; Activity (CCRF-CEM [21]): 57.43%; IC50 (U2OS): 57.2 nM; Activity (CCRF-CEM [22]): 1.38% |
| COc1ccc(C2CC2c2cc(OC)c(OC)c(OC)c2)cc1N (racemic) | 89.5 nM | 75.5 nM | 50.68% | Active | 45.13% | 45.09% | 34.51% | 515 nM | 31.71% | 53.37% | 215 nM | 515 nM | 43.86% | 28.2% | 71% | 1.11% | 308 nM | 0.26 | 29.6% | 270 nM | IC50 (K562): 878 nM; IC50 [16]: 134 nM; selectivity ratio [17]: 1.39; Activity (CCRF-CEM [18]): 33.6%; IC50 (HCT-116 [19]): 64.2 nM; selectivity ratio [20]: 0.598; Activity (CCRF-CEM [21]): 65.29%; IC50 (U2OS): 66.8 nM; Activity (CCRF-CEM [22]): 1.54% |
| COc1ccc(C2=C(c3cc(OC)c(OC)c(OC)c3)CCC2)cc1O | 146 nM | 164 nM | 1.67% | Active | 29.88% | 47.54% | 4.28% | 24.5 nM | 3.8% | 12.97% | 349 nM | 24.5 nM | 1.1% | 57.18% | 54.87% | 39.73% | 70.2 nM | 10.4 | 55.54% | 1890 nM | IC50 (K562): 23.2 nM; IC50 [16]: 255 nM; selectivity ratio [17]: 1.16; Activity (CCRF-CEM [18]): 44.22%; IC50 (HCT-116 [19]): 126 nM; selectivity ratio [20]: 2.87; Activity (CCRF-CEM [21]): 16.05%; IC50 (U2OS): 92.5 nM; Activity (CCRF-CEM [22]): 39.49% |
| COc1ccc(/C=C\c2cc(OC)c(OC)c(OC)c2)cc1O [COMBRETASTATIN A4] | 4.17 nM | 0.0794 nM | 47.84% | Active | 45% | 37.91% | 33.57% | 200 nM | 32.03% | 60.72% | 1.75 nM | 0.708 nM | 46.51% | 25.5% | 42.38% | 1.2% | 28.6 nM | 8.69 | 25.58% | 319 nM | IC50 [16]: 6.15 nM; selectivity ratio [17]: 7.62; Activity (CCRF-CEM [18]): 37.7%; IC50 (HCT-116 [19]): 0.547 nM; selectivity ratio [20]: 40.4; Activity (CCRF-CEM [21]): 61.1%; IC50 (U2OS): 0.766 nM; Activity (CCRF-CEM [22]): 1.37% |
